Consider 46 compounds from ChEMBL document CHEMBL1138905, “Design, synthesis, and biological evaluation of indole derivatives as novel nociceptin/orphanin FQ (N/OFQ) receptor antagonists” (Bioorg Med Chem Lett, 2006).

The structures appear in SMILES notation. Where only a bound is given, the exact number is not on record here.

The target of assay [1] is T1, Nociceptin receptor (Homo sapiens, UniProt P41146). As to the kind of experiment: Displacement of [125I][Tyr14]N/OFQ from ORL1 receptor transfected in CHO cells. The assay is classed as cell-based. For orientation: Loss of bound radioactivity is the signal in a displacement assay; it reports binding, not function.
T1 sequence (P41146 whole entry): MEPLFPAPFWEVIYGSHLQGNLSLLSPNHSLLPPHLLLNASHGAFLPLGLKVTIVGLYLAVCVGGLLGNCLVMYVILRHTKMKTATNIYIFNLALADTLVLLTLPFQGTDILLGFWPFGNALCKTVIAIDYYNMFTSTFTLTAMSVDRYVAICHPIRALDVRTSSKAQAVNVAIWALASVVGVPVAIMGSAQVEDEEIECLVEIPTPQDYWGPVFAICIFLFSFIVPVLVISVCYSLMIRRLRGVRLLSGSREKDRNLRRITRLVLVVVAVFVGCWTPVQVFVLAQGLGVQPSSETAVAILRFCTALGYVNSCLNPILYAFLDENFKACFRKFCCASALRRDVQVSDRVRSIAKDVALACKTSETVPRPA
Assay [2] deals with T1, Nociceptin receptor. Briefly: Displacement of [125I][Tyr14]N/OFQ from ORL1 receptor transfected in CHO cells at 1 uM. The assay is classed as cell-based.
Assay [3] concerns the target T1, Nociceptin receptor. As to the kind of experiment: Antagonist activity against ORL1 receptor by GTPgammaS assay. It counts as functional.

As to `CCCCc1noc(-c2cc3c(CCN(C)C)cccc3[nH]2)n1`, the half-maximal inhibitory concentration (IC50) (commonly the concentration that inhibits the measured activity by half) on Nociceptin receptor [1] was more than 1000 nM. Further, on Nociceptin receptor [2], the inhibition (in general, the percentage by which the read-out fell short of the control) was determined as 42%.
Consider `CN(C)CCc1cccc2[nH]c(-c3nc(CCCN4CCCC4)no3)cc12`, for which the IC50 on Nociceptin receptor [1] was more than 1000 nM. Moreover, the inhibition at Nociceptin receptor [2] worked out at 0%.
Take `CCCc1noc(-c2cc3c(CCN(C)C)cccc3[nH]2)n1`: on Nociceptin receptor [1], the IC50 is more than 1000 nM. This compound also had an inhibition at Nociceptin receptor [2] of 14%.
For the compound `CN(C)Cc1cccc2[nH]c(-c3nc(CCc4ccc(Cl)cc4)no3)cc12`, the IC50 on Nociceptin receptor [1] turned out to be 62 nM; at Nociceptin receptor [3], 233 nM.
As for `CCN(C)CCc1cccc2[nH]c(-c3nc(CCc4ccc(Cl)cc4)no3)cc12`, the IC50 at Nociceptin receptor [1] was 58 nM; against Nociceptin receptor [3], 223 nM.
For `CN1CCC(c2cccc3[nH]c(-c4nc(CCc5ccc(Cl)cc5)no4)cc23)CC1`, in that order: 62 nM and 899 nM.
At Nociceptin receptor [1], `Clc1ccc(CCc2noc(-c3cc4c(CCN5CCCC5)cccc4[nH]3)n2)cc1` came in with a 50% inhibitory concentration (IC50) of 568 nM.
Regarding `CN(C)CCc1cccc2[nH]c(-c3nc(CCC4CC5CCC4C5)no3)cc12` (centres undefined), at Nociceptin receptor [1], the IC50 stood at 440 nM.
Consider `CN(C)CCc1cccc2[nH]c(C(=O)NCCc3ccc(Cl)cc3)cc12`, for which the IC50 at Nociceptin receptor [1] was more than 1000 nM. The same compound had an inhibition at Nociceptin receptor [2] of 18%.
For `CN1CCCC1c1ccc2[nH]c(-c3nc(CCc4ccc(Cl)cc4)no3)cc2c1C1CCCN1C` (centres undefined), in that order: more than 1000 nM and 31%.
At Nociceptin receptor [1], `CN1CCN(c2cccc3[nH]c(-c4nc(CCc5ccc(Cl)cc5)no4)cc23)CC1` came in with an IC50 of 120 nM.
At Nociceptin receptor [1], `CN(C)CCc1cccc2[nH]c(-c3ncc(CCc4ccc(Cl)cc4)o3)cc12` registered a half-inhibitory concentration (IC50) of more than 1000 nM. At Nociceptin receptor [2], the inhibition came to 37%.
At Nociceptin receptor [1], `CN(C)CCc1cccc2[nH]c(-c3nc(Cc4ccc(Cl)cc4)no3)cc12` yielded an IC50 of 450 nM.
Turning to `CN(C)CCc1cccc2[nH]c(-c3nc(CCc4ccc(C(F)(F)F)cc4)no3)cc12`, the values for the IC50 on Nociceptin receptor [1] and against Nociceptin receptor [3] were 49 nM and 421 nM, respectively.
`COc1ccc(CCc2noc(-c3cc4c(CCN(C)C)cccc4[nH]3)n2)cc1`: the IC50 on Nociceptin receptor [1] was found to be 560 nM.
In the case of `CN(C)CCc1cccc2[nH]c(-c3nnn(CCc4ccc(Cl)cc4)n3)cc12`, the IC50 on Nociceptin receptor [1] was more than 1000 nM. In addition, the inhibition at Nociceptin receptor [2] is 46%.
`CN(C)CCc1cccc2[nH]c(-c3nc(CCc4ccc(F)cc4)no3)cc12` came in with an IC50 at Nociceptin receptor [1] of 450 nM.
`CC(C)CCc1noc(-c2cc3c(CCN(C)C)cccc3[nH]2)n1` registered a half-maximal inhibitory concentration (IC50) on Nociceptin receptor [1] of more than 1000 nM. This compound also displayed an inhibition at Nociceptin receptor [2] of 29%.
On Nociceptin receptor [1], `CN(C)CCc1cccc2[nH]c(-c3nc(CCc4ccc(N(C)C)cc4)no3)cc12` had a half-inhibitory concentration (IC50) of more than 1000 nM. Also, on Nociceptin receptor [2], the inhibition was 44%.
On Nociceptin receptor [1], `CN(C)CCCc1cccc2[nH]c(-c3nc(CCc4ccc(Cl)cc4)no3)cc12` gave an IC50 of 210 nM.
Take `CN(C)CCc1cccc2[nH]c(-c3nnc(CCc4ccc(Cl)cc4)o3)cc12`: the IC50 on Nociceptin receptor [1] is more than 1000 nM. Besides, the inhibition on Nociceptin receptor [2] was 39%.
For `CN1CCN(c2cc[nH]c3nc(-c4nc(CCc5ccc(Cl)cc5)no4)cc2-3)CC1`, in that order: more than 1000 nM and 27%.
For `CN(C)CCc1cccc2[nH]c(-c3nc(CCc4ccncc4)no3)cc12`, in that order: more than 1000 nM and 12%.
With `CN(C)CCOCCc1cccc2[nH]c(-c3nc(CCc4ccc(Cl)cc4)no3)cc12`, the values for the IC50 at Nociceptin receptor [1] and against Nociceptin receptor [3] were 97 nM and 450 nM, respectively.
For `CN1CCN(c2[nH]ccc3nc(-c4nc(CCc5ccc(Cl)cc5)no4)cc2-3)CC1`, in that order: 40 nM and 199 nM.
On Nociceptin receptor [1], `CN(C)CCc1cccc2[nH]c(-c3nc(CCc4cccnc4)no3)cc12` displayed a concentration for half-maximal inhibition (IC50) of more than 1000 nM. At Nociceptin receptor [2], this compound displayed an inhibition of 1.7%.
For `CN(C)CCc1cccc2cc(-c3nc(CCc4ccc(Cl)cc4)no3)[nH]c12`, in that order: more than 1000 nM and 18%.
Regarding `CN(C)CCc1ccc2[nH]c(-c3nc(CCc4ccc(Cl)cc4)no3)cc2c1`, the IC50 at Nociceptin receptor [1] is more than 1000 nM. Also, the inhibition at Nociceptin receptor [2] was 3%.
For `CN(C)CCc1ccc2cc(-c3nc(CCc4ccc(Cl)cc4)no3)[nH]c2c1`, in that order: more than 1000 nM and 22%.
At Nociceptin receptor [1], `CN(C)CCc1cccc2[nH]c(-c3nc(CCCc4ccc(Cl)cc4)no3)cc12` gave a concentration for half-maximal inhibition (IC50) of more than 1000 nM. This compound registered an inhibition on Nociceptin receptor [2] of 49%.
Turning to `CN(C)CCc1cccc2[nH]c(-c3nc(COc4ccc(Cl)cc4)no3)cc12`, the IC50 at Nociceptin receptor [1] came to 410 nM.
Still for that read-out and setting: next, `CN(C)CCc1cccc2[nH]c(-c3nc(CC4CCCCC4)no3)cc12`: 440 nM; `CN(C)CCc1cccc2[nH]c(-c3nc(CCC4CCCCC4)no3)cc12`: 140 nM.
For `CN(C)CCc1cccc2[nH]c(-c3nc(CCC(C)(C)C)no3)cc12`, on Nociceptin receptor [1], the IC50 is more than 1000 nM. This compound gave an inhibition at Nociceptin receptor [2] of 20%.
For the compound `CN(C)CCc1cccc2[nH]c(-c3nc(CCC4CC4)no3)cc12`, the concentration for half-maximal inhibition (IC50) on Nociceptin receptor [1] is more than 1000 nM. On Nociceptin receptor [2], this compound had an inhibition of 29%.
For `CN(C)CCc1cccc2[nH]c(-c3nc(CCc4ccccc4)no3)cc12`, in that order: more than 1000 nM and 46%.
For `Clc1ccc(CCc2noc(-c3cc4c(CCN5CCOCC5)cccc4[nH]3)n2)cc1`, in that order: more than 1000 nM and 15%.
For `CN(C)CCc1cccc2[nH]c(-c3nc(CCc4ccccn4)no3)cc12`, in that order: more than 1000 nM and 11%.
At Nociceptin receptor [1], `CN(C)CCc1cccc2[nH]c(C(=O)NCCCc3ccc(Cl)cc3)cc12` displayed a half-inhibitory concentration (IC50) of more than 1000 nM. Moreover, at Nociceptin receptor [2], the inhibition stood at 41%.
For `COC(C)(C)CCc1noc(-c2cc3c(CCN(C)C)cccc3[nH]2)n1`, in that order: more than 1000 nM and 4%.
At Nociceptin receptor [1], `CN(C)CCc1cccc2[nH]c(-c3nc(CCC4CCCC4)no3)cc12` had an IC50 of 580 nM.
The same measure, in the same setting: the result for `CN(C)CCc1cccc2[nH]c(-c3noc(CCc4ccc(Cl)cc4)n3)cc12` reads 600 nM.
Turning to `CN(C)CCc1cccc2[nH]c(-c3nc(CCCC4CCCCC4)no3)cc12`, the concentration for half-maximal inhibition (IC50) worked out at 71 nM on Nociceptin receptor [1] and 294 nM on Nociceptin receptor [3].
On to `Cc1ccc(CCc2noc(-c3cc4c(CCN(C)C)cccc4[nH]3)n2)cc1`, for which the half-inhibitory concentration (IC50) at Nociceptin receptor [1] turned out to be 230 nM.
In the case of `CN(C)CCc1cccc2[nH]c(-c3nc(CCC4CCOCC4)no3)cc12`, the IC50 at Nociceptin receptor [1] was more than 1000 nM. This compound also showed an inhibition on Nociceptin receptor [2] of 11%.
Regarding `CN(C)CCc1cccc2[nH]c(-c3nc(CCc4ccc(Cl)cc4)no3)cc12`, the half-maximal inhibitory concentration (IC50) amounted to 95 nM on Nociceptin receptor [1] and 632 nM on Nociceptin receptor [3].
